Common to all, as to type: in vivo
Data set [1] relates to tobacco mosaic virus (烟草花叶病毒(TMV)). As to the kind of experiment: 直接抗TMV活性, 半叶法. The conditions noted are these: for inhibition at 100 µg/mL: Tobacco mosaic virus.
Data set [2] shares this test system. As to the kind of experiment: 诱导烟草抗TMV活性 (活体诱导). The conditions noted are these: for inhibition at 100 µg/mL: Tobacco mosaic virus, read-out: antiviral activity (inhibition rate): induction activity.
Another data set deals with diamondback moth (小菜蛾). In words: 小菜蛾杀虫活性, 叶片药膜法. The conditions noted are these: for mortality at 200 µg/mL: Plutella xylostella, read-out: kill rate.
[3] abbreviates: TMV, 100 mg/L, read-out: antiviral activity (inhibition rate): curative activity.
Setting [4] is: TMV, 100 mg/L, read-out: antiviral activity (inhibition rate): inactivation activity.
Where [5] appears, read: TMV, 100 mg/L, read-out: antiviral activity (inhibition rate): protective activity.
[6] abbreviates: induced resistance of tobacco to TMV, 100 mg/L.
The mark [7] stands for this setting: induced resistance of tobacco to TMV.
Where [8] appears, read: 200 mg/L, 2nd instar larvae, 96 h or 120 h.

Where two headings read alike, the source gives them in different places.

Usually inhibition stands for the drop in the measured response relative to a control, in per cent. Take `Cc1ccc(NC(=O)c2snnc2C)cc1Cl` [TDL, 噻酰菌胺]: the inhibition at 100 µg/mL in data set [1] (setting [3]) came to 23.5 ± 4.41%; in data set [1] (setting [4]), 20.5 ± 3.88%; in data set [1] (setting [5]), 20.1 ± 6.41%; in data set [2] (setting [6]), 47.5 ± 3.75%. In data set [2] (setting [7]), the “induction activity (in words)” value is listed as “具有很好的诱导烟草产生对TMV的抗性”. In addition, in data set [2] (setting [6]), the “antiviral activity (inhibition rate): induction activity” value was found to be 47%.

The molecule `O=[N+]([O-])NC1=NCCN1Cc1ccc(Cl)nc1` [吡虫啉] gave a kill rate in the data set on diamondback moth (小菜蛾) (setting [8]) of 0%. Moreover, the mortality at 200 µg/mL in the data set on diamondback moth (小菜蛾) was 0%.

Regarding `CNCC(=O)NC(CO)C(=O)NC1C(C(N)=O)OC(n2ccc(N)nc2=O)C(O)C1O` (stereo not shown) [宁南霉素], the “direct antiviral activity (in words)” value in data set [1] (TMV) is “具有很好的直接抗病毒活性”. The inhibition at 100 µg/mL in data set [1] (read-out: antiviral activity (inhibition rate): curative activity) worked out at 41.7 ± 2.25%; in data set [1] (read-out: antiviral activity (inhibition rate): inactivation activity), 43.1 ± 4.07%; in data set [1] (read-out: antiviral activity (inhibition rate): protective activity), 42.9 ± 1.59%; in data set [2] it was 25 ± 3.75%. The “induction activity (in words)” value in data set [2] (setting [7]) was “几乎没有诱导活性”.

`CNC(=O)c1cc(Cl)cc(C)c1NC(=O)c1cc(Br)nn1-c1ncccc1Cl` [氯虫苯甲酰胺]: in the data set with diamondback moth (小菜蛾) (setting [8]), the kill rate was 100% and the mortality at 200 µg/mL came out at 100%.

In the case of `NC(=O)c1ncn([C@@H]2O[C@H](CO)[C@@H](O)[C@H]2O)n1` [病毒唑], the “direct antiviral activity (in words)” value in data set [1] (TMV) is “具有很好的直接抗病毒活性”. Besides, the inhibition at 100 µg/mL is 44.1 ± 2.94% in data set [1] (setting [3]), 25.6 ± 3.87% in data set [1] (setting [4]), 46 ± 4.2% in data set [1] (setting [5]) and 27.1 ± 4.39% in data set [2] (setting [6]). Further, the “induction activity (in words)” value in data set [2] (setting [7]) is “几乎没有诱导活性”.

Source of the values: patent CN103483288A, “一类3,4-二氯异噻唑双酰肼类化合物及其制备方法和用途” (priority 2013, dated 2014).
